The source made the active and inactive calls.
Columns and labels:
[1] = molecular target: Interleukin-1 receptor-associated kinase 4 (Homo sapiens, UniProt Q9NWZ3); format: functional
[2] = molecular target: Cell division cycle 7-related protein kinase (Homo sapiens, UniProt O00311); format: functional;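 note: value obtained from a kinome-wide kinase panel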
[3] = molecular target: Dual specificity protein kinase CLK4 (Homo sapiens, UniProt Q9HAZ1); format: functional
[4] = molecular target: Mitogen-activated protein kinase kinase kinase kinase 4 (Homo sapiens, UniProt O95819); format: functional
[5] = molecular target: cAMP-dependent protein kinase catalytic subunit alpha (Homo sapiens, UniProt P17612); format: functional
[6] = molecular target: Serine/threonine-protein kinase pim-1 (Homo sapiens, UniProt P11309); format: functional
[7] = molecular target: MAP kinase-interacting serine/threonine-protein kinase 2 (Homo sapiens, UniProt Q9HBH9); format: functional
Sequence of MAP kinase-interacting serine/threonine-protein kinase 2 (Q9HBH9 whole entry): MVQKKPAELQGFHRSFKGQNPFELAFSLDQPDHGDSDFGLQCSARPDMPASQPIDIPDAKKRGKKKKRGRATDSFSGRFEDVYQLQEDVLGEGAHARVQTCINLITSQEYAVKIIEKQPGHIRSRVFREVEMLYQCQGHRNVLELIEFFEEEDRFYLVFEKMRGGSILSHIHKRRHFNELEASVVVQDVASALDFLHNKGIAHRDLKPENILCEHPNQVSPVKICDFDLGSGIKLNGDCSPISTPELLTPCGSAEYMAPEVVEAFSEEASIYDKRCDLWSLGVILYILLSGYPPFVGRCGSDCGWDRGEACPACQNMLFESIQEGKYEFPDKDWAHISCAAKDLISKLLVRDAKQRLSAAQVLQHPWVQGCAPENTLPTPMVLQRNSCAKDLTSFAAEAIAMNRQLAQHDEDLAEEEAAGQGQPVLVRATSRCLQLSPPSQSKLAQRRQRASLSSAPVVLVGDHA

[8] = molecular target: Homeodomain-interacting protein kinase 2 (Homo sapiens, UniProt Q9H2X6); format: functional;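 note: measured within a kinome-wide kinase profiling panel, HIPK2 being one panel member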
[9] = molecular target: Glycogen synthase kinase-3 beta (Homo sapiens, UniProt P49841); format: functional;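 note: value comes from a broad kinome profiling panel, with GSK3B as the panel member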
Sequence of Glycogen synthase kinase-3 beta (P49841 whole entry): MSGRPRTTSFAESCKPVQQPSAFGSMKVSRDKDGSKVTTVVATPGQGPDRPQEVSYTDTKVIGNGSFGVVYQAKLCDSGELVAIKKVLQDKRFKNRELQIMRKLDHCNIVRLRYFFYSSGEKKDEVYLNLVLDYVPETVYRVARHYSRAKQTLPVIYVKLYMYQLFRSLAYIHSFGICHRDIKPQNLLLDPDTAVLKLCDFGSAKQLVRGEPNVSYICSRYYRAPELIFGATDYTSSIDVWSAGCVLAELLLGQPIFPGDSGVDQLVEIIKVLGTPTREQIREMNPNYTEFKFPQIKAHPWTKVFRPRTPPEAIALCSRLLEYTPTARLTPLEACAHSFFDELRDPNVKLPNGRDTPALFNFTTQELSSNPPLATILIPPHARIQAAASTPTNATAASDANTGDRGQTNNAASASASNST

Caspase-3 [10] = molecular target: T1, Caspase-3 (Homo sapiens, UniProt P42574); assay: SAR Analysis of small molecule inhibitors of Sentrin-specific proteases (SENPs) using a Caspase-3 Selectivity assay. [Related pubchem assays (depositor defined):AID2540, AID2599, AID434973, AID489001]; format: functional
T1 sequence (P42574 whole entry): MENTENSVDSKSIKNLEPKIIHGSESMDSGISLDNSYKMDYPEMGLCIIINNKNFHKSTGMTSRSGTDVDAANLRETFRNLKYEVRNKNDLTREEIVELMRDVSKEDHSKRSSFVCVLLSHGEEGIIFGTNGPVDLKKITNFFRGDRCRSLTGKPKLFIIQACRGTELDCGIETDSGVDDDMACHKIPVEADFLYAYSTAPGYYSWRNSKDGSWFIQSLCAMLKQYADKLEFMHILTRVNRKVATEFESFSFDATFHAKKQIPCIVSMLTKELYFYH

Caspase-3 [11] = molecular target: T1, Caspase-3; assay: inhibition of recombinant caspase-3 activity – biochemical, luminescence, set 2, selectivity assay for SENP protease inhibitor project, SAR follow-up (AID 588599); format: functional
[12] = molecular target: T2, Sentrin-specific protease 7 (Homo sapiens, UniProt Q9BQF6); assay: inhibition of human SENP7 cleavage activity – biochemical, luminescence, SAR follow-up (AID 504497); format: functional
T2 sequence (Q9BQF6 whole entry): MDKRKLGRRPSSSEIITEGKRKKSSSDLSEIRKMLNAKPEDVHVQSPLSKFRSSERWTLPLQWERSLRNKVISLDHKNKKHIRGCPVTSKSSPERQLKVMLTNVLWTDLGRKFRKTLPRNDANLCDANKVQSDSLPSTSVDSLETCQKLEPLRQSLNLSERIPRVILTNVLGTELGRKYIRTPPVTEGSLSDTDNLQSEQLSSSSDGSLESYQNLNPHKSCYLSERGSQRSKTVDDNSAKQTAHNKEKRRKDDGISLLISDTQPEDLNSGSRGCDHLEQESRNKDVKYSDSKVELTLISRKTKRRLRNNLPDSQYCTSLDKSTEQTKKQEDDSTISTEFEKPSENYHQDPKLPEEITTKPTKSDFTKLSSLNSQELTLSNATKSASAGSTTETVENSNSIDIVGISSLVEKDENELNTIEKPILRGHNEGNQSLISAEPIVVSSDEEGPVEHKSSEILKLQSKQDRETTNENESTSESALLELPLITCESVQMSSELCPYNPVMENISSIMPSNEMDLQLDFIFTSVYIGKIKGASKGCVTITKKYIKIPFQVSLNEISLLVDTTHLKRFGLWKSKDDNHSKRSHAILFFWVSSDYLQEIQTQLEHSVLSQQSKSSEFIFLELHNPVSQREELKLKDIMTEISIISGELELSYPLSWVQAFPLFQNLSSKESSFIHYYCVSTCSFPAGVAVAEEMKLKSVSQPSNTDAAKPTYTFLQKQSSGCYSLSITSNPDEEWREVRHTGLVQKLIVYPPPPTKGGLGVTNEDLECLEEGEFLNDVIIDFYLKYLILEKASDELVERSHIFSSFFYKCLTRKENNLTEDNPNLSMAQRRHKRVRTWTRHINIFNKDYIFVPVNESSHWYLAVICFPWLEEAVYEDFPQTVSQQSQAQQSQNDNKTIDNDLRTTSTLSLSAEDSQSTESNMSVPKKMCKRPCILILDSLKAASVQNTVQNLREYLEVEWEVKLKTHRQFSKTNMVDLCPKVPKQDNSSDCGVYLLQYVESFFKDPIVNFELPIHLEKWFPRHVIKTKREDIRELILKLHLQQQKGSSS

[13] = molecular target: T3, Sentrin-specific protease 8 (Homo sapiens, UniProt Q96LD8); assay: inhibition of human SENP8 cleavage activity – biochemical, luminescence, SAR follow-up (AID 504501); format: functional
T3 sequence (Q96LD8 whole entry): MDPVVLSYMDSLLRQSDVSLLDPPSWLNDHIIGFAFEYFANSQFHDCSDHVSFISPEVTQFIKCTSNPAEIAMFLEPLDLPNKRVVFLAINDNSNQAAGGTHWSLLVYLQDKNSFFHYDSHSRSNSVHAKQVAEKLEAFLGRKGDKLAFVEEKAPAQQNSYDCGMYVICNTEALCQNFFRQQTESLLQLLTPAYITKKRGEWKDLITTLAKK

[14] = molecular target: T4, Sentrin-specific protease 6 (Homo sapiens, UniProt Q9GZR1); assay: SAR Analysis of small molecule inhibitors of Sentrin-specific protease 6 (SENP6) using a Luminescent assay. [Related pubchem assays (depositor defined):AID2582, AID2599]; format: functional
T4 sequence (Q9GZR1 whole entry): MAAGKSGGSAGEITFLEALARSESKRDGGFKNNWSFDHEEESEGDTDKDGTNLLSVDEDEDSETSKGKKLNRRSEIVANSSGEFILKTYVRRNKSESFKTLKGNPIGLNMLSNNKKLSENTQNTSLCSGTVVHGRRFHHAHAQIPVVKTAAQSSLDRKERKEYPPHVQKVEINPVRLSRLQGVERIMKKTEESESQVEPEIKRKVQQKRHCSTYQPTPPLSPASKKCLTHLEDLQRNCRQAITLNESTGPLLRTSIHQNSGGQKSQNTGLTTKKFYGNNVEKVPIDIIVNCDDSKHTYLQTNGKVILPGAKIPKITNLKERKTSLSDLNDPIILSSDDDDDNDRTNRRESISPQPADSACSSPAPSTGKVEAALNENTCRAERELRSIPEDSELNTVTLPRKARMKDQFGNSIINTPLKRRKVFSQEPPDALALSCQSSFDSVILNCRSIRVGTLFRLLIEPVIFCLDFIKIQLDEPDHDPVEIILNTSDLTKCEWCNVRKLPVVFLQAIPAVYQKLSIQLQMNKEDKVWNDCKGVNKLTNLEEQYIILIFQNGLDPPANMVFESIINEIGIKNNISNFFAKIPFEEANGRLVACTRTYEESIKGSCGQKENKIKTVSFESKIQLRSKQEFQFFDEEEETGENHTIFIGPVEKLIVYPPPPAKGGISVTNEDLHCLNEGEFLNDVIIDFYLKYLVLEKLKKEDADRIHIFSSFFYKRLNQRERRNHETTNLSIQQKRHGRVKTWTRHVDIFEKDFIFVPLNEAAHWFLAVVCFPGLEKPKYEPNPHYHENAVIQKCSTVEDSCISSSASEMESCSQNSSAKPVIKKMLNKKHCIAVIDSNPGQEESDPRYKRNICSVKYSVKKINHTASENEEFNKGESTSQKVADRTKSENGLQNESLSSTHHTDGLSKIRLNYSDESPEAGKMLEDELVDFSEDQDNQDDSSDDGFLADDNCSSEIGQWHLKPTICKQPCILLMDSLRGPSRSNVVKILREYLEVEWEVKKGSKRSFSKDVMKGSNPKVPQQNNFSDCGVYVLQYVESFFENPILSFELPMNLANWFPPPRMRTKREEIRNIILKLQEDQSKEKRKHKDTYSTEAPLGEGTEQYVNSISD

[15] = molecular target: T4, Sentrin-specific protease 6; assay: inhibition of human SENP6 catalytic domain – biochemical, luminescence, set 2, SAR follow-up (AID 588598); format: functional
[16] = molecular target: T3, Sentrin-specific protease 8; assay: inhibition of sentrin protease 8 – biochemical, luminescence, set 2, SAR follow-up (AID 588601); format: functional
[17] = molecular target: T2, Sentrin-specific protease 7; assay: inhibition of human SENP7 cleavage activity – biochemical, luminescence, set 2, SAR follow-up (AID 588600); format: functional
[18] = molecular target: T5, Protein disulfide-isomerase (Homo sapiens, UniProt P07237); assay: inhibition of PDI-driven insulin aggregation – biochemical, turbidity, absorbance, cherry-picked samples, dose response (AID 602350); format: functional
T5 sequence (P07237 whole entry): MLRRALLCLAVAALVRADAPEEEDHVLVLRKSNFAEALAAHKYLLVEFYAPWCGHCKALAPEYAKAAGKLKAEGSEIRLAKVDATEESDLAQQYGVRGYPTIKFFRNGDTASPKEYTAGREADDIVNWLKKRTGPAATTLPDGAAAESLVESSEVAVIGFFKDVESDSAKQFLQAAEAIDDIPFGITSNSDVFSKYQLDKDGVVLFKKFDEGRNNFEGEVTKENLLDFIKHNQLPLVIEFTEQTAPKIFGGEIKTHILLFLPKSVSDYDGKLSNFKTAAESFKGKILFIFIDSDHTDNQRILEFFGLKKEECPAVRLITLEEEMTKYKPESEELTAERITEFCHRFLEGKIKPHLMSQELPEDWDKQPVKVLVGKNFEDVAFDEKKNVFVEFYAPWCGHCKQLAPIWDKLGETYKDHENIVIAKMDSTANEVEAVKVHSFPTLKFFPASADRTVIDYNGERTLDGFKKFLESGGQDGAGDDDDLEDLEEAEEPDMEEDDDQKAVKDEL

[19] = molecular target: T5, Protein disulfide-isomerase; assay: inhibition of PDI-mediated insulin reduction – biochemical, turbidity, absorbance, cherry-picked samples, set 2, dose response (AID 624274); format: functional
HEK293 [20] = assay: optical interference in Abeta FP readout, dose response, artefact control for IDE activator project, biochemical, fluorescence polarization (AID 588442); format: functional, cell-based; details: Homo sapiens
BJ [21] = assay: BJ-TERT fibroblast viability loss – cell-based, RAS-independent, luminescence, dose response (AID 1933); format: functional; details: Homo sapiens
[22] = DRD fibroblast viability loss – cell-based, non-viral oncogenic, luminescence, dose response (AID 1934); format: functional; details: Homo sapiens
HEK293 [23] = assay: membrane integrity loss in HEK cells – cell-based, fluorescence, cytotoxicity control for IDE activator project, dose response (AID 588440); format: functional; details: Homo sapiens;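 note: cytotoxicity by LDH release measuring loss of membrane integrity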
Insulin-degrading enzyme [24] = molecular target: T6, Insulin-degrading enzyme (Homo sapiens, UniProt P14735); assay: recombinant IDE activation, cell-free – biochemical, fluorescence polarization, counter-screen for IDE activator project, dose response (AID 588681)
T6 sequence (P14735 whole entry): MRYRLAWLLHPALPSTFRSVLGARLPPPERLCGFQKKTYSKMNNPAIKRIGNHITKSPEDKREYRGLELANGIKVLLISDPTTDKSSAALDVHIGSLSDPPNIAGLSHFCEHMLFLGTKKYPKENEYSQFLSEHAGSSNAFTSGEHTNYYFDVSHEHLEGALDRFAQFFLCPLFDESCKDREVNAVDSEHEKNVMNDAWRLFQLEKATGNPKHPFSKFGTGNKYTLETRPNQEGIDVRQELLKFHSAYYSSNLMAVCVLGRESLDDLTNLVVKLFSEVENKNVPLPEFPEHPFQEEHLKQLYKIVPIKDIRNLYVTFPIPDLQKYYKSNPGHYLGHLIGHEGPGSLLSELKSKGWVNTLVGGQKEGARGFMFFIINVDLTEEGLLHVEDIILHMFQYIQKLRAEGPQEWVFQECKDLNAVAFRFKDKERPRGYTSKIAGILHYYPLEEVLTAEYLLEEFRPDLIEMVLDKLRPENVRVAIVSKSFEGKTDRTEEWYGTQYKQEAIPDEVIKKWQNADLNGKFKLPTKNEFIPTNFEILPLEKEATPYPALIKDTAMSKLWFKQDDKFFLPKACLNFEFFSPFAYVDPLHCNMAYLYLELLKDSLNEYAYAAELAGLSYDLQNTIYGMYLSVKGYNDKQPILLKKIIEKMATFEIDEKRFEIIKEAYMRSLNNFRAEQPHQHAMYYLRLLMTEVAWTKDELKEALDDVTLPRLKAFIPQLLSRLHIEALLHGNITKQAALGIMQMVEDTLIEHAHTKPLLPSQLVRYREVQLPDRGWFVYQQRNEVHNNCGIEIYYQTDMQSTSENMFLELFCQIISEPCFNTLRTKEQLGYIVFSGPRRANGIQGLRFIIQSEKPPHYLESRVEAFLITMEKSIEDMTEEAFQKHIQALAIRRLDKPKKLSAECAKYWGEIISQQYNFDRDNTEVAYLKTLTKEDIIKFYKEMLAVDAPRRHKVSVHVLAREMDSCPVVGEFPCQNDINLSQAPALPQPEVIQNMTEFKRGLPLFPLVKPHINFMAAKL

BJ [25] = assay: BJ-TERT-LT-ST fibroblast viability loss – cell-based, RAS-independent, luminescence, dose response (AID 1935); format: functional; details: Homo sapiens;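 note: BJ fibroblasts immortalized with TERT plus LT and ST oncogenes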
[26] = bead-based luminescence quenchers, dual-tagged ARNT – biochemical, AlphaScreen, cherry-pick, artefact control for ARNT-TACC3 interaction inhibitor project, dose response (AID 651705); format: functional;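 note: AlphaScreen bead proximity signal that flags compounds interfering with the detection technology; potency reflects signal decrease which marks the compound as an assay artifact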
Insulin-degrading enzyme [27] = molecular target: T6, Insulin-degrading enzyme; assay: cellular IDE activation of Abeta substrate cleavage – fluorescence polarization, HEK cells, dose response (AID 588439); format: functional, cell-based
BJ [28] = assay: cells; format: functional, cell-based; details: Homo sapiens
[29] = molecular target: DNA dC->dU-editing enzyme APOBEC-3G (Homo sapiens, UniProt Q9HC16); assay: inhibition of APOBEC3G ssDNA deamination – biochemical, fluorescence, single-stranded DNA substrate, SAR follow-up (AID 602136); format: functional; details: read-out: IC50_Mean
[30] = molecular target: DNA dC->dU-editing enzyme APOBEC-3A (Homo sapiens, UniProt P31941); assay: SAR analysis of small molecule inhibitors of APOBEC3A DNA Deaminase via a fluorescence-based single-stranded DNA deaminase assay.; format: functional; details: read-out: IC50_Mean
Sequence of DNA dC->dU-editing enzyme APOBEC-3A (P31941 whole entry): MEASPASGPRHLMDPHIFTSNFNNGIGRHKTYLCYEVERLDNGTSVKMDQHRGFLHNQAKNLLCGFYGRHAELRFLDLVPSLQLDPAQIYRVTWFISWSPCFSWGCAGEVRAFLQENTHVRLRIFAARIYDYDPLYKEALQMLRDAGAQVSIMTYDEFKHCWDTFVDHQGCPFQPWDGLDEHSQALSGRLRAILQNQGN

Aurora kinase A = Aurora kinase A (Homo sapiens, UniProt O14965); format: functional;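 note: value from the Navigating the Kinome kinase panel profiling, panel entry STK6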
Sequence of Aurora kinase A (O14965 whole entry): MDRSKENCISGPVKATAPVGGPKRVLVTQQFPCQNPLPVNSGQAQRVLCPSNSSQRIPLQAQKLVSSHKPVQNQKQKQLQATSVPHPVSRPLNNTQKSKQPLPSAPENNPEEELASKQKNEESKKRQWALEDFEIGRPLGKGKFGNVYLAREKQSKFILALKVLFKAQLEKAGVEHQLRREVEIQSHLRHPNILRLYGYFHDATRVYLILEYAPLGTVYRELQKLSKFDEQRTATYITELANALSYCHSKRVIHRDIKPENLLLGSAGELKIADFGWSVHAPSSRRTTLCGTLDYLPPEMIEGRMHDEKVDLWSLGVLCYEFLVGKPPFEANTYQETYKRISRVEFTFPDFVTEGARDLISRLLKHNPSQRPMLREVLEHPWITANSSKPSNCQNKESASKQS

[31] = molecular target: Serine/threonine-protein kinase Chk1 (Homo sapiens, UniProt O14757); format: functional;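 note: measured as one member of a kinome-wide kinase profiling panel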
[32] = molecular target: Botulinum neurotoxin type A (Clostridium botulinum (strain Hall / ATCC 3502 / NCTC 13319 / Type A), UniProt P0DPI1); assay: High-throughput multiplex microsphere dose response for inhibitors of toxin protease, specifically Botulinum neurotoxin light chain A protease, compounds from Cherry Pick 02.; format: functional; details: read-out: EC50_MICROM
Sequence of Botulinum neurotoxin type A (P0DPI1 2-448 limits assumed): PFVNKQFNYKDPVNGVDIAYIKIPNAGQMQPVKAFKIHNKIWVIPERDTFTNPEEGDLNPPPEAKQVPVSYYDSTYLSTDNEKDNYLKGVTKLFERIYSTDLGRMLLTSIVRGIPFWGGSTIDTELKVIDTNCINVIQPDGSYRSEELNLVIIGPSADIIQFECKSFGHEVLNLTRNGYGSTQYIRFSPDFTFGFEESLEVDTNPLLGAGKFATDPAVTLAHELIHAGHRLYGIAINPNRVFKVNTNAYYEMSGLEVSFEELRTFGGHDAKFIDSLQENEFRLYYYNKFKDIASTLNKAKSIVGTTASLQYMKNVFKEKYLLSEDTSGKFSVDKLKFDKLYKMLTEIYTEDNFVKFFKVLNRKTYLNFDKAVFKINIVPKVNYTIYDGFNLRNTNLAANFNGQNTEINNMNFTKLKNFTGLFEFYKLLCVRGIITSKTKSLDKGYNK

[33] = NIH3T3 cell viability loss – ATP luminescence, mouse fibroblasts, counter-screen, dose response (AID 2010); format: functional, cell-based;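 note: cells exposed to compound for about 90 hours before reading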
Lethal factor = Lethal factor (Bacillus anthracis, UniProt P15917); assay: High-throughput multiplex microsphere dose response for inhibitors of toxin protease, specifically Lethal Factor protease, compounds from Cherry Pick 02.; format: functional; details: read-out: EC50_MICROM
Sequence of Lethal factor (P15917 whole entry): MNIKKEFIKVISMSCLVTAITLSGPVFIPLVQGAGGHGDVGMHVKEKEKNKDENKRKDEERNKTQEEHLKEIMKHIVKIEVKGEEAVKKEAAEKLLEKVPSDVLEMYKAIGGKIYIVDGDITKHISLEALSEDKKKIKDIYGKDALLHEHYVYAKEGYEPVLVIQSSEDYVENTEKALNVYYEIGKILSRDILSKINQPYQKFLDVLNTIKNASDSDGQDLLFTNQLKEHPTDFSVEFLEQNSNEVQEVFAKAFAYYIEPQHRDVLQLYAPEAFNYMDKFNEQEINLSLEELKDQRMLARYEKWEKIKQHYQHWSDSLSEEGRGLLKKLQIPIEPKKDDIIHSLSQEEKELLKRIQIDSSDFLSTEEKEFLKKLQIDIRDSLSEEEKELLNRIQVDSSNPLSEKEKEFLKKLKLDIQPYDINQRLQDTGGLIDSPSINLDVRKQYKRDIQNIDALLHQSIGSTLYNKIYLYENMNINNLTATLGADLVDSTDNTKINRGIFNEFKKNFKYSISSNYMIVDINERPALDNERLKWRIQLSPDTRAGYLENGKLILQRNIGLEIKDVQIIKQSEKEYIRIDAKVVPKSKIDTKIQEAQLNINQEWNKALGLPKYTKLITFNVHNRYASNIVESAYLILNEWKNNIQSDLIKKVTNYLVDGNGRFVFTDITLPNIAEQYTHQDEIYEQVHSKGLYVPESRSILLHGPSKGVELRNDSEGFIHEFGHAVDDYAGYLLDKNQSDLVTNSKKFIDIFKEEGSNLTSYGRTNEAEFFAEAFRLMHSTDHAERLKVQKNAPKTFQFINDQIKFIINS

[34] = Trypanosoma cruzi growth suppression in host cells – NIH3T3 host cells, beta-gal luminescence, confirmation (AID 2044); format: functional, cell-based;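 note: intracellular parasites grown in NIH/3T3 mouse fibroblasts as host cells; luminescent beta-galactosidase reporter signal from transgenic T. cruzi replicating inside host cells; inhibitors lower the luminescence signal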
[35] = molecular target: Botulinum neurotoxin type F (Clostridium botulinum, UniProt P30996); assay: High-throughput multiplex microsphere dose response for inhibitors of toxin protease, specifically Botulinum neurotoxin light chain F protease, compounds from Cherry Pick 02.; format: functional; details: read-out: EC50_MICROM

Sequence of Interleukin-1 receptor-associated kinase 4 (Q9NWZ3 whole entry): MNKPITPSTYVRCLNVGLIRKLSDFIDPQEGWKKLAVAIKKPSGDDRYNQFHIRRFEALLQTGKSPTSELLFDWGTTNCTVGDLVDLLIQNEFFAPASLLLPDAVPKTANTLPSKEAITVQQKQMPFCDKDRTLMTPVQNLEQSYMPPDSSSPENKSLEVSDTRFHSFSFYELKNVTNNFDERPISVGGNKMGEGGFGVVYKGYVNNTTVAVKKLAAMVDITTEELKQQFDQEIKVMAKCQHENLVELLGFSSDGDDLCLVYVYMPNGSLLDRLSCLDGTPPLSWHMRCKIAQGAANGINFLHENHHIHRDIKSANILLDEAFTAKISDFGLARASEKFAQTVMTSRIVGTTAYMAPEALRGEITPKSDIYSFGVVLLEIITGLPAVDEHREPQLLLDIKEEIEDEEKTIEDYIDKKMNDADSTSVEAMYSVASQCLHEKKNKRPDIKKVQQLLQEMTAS

Nc1n[nH]c2ccc(-c3nnn(Cc4ccccc4)c3C3CC3)cc12
Ki [1]: > 10 µM (inactive)
Ki [2]: 0.0316 µM (active)
Ki [3]: 0.0251 µM (active)
Ki [4]: 1 µM (active)
Ki [5]: 0.631 µM (active)
Ki [6]: 3.98 µM (active)
Ki [7]: 0.398 µM (active)
Ki [8]: 2 µM (active)
Ki [9]: 0.00794 µM (active)

CCCCc1ccc2nc(NC(=O)c3cc(C)cs3)sc2c1
IC50 (Caspase-3 [10]): 51 µM (active)
IC50 (Caspase-3 [11]): 68.4 µM (active)
IC50 [12]: 6.4 µM (active)
IC50 [13]: > 99 µM (inactive)
IC50 [14]: > 99 µM (inactive)
IC50 [15]: 8.58 µM (active)
IC50 [16]: 8.25 µM (active)
IC50 [17]: 29.4 µM (active)

O=C1NC(Cc2ccc(O)cc2)c2nc3ccccc3c(=O)n2-c2ncccc21 (configuration not stated)
AC50 [18]: < 0.009 µM (active)
AC50 [19]: 0.009 µM (active)

CCN(CC)c1ccc(/C=N/N=C(N)N)c(O)c1
EC50 (HEK293 [20]): > 54.7 µM (inactive)
EC50 (BJ [21]): 1.47 µM (active)
EC50 [22]: 1.19 µM (active)
IC50 (HEK293 [23]): > 89.2 µM (inactive)
EC50 (Insulin-degrading enzyme [24]): > 54.7 µM (inactive)
EC50 (BJ [25]): 1.51 µM (inconclusive)
AC50 [26]: 115 µM (active)
EC50 (Insulin-degrading enzyme [27]): > 54.7 µM (inactive)
EC50 (BJ [28]): 2.16 µM (active)

Fc1ccc(Nc2nc(Nc3ccc(Cl)c(Cl)c3)nc(N3CCOCC3)n2)cc1
IC50 [29]: > 99 µM (inactive)
IC50 [30]: > 99 µM (inactive)

CN(C)c1ncnc2[nH]ncc12
Ki (Aurora kinase A): 12.6 µM (active)
Ki [31]: 5.01 µM (active)

Cc1cc2ccccc2n1CCNC(=O)COc1ccccc1
EC50 [32]: 4.9 µM (active)
EC50 [33]: > 30 µM (not active)
EC50 (Lethal factor): 1.4 µM (active)
EC50 [34]: 1.16 µM (active)
EC50 [35]: > 20 µM (inactive)
